How the values were obtained:
Assay in all cases: CTG-3D luminescence at 96 h relative to day-0 seeding control (ratio to day 0); higher = more growth / less cytotoxicity; PDxO 3D drug screen, 96 h, CTG-3D normalised to day-0 seeding control.
HCI-024 = system: HCI-024 (organoid from a breast cancer xenograft)
HCI-005.E2 = system: HCI-005.E2 (organoid from a breast cancer xenograft with a HER2-positive history)
HCI-012 = system: HCI-012 (organoid from a breast cancer xenograft)
HCI-017.E2 = system: HCI-017.E2 (organoid from an ER-positive breast cancer xenograft)
HCI-001 = system: HCI-001 (organoid from a triple-negative breast cancer xenograft)
HCI-003.E2 = system: HCI-003.E2 (organoid from an ER-positive breast cancer xenograft)

C=CCn1c(=O)c2cnc(Nc3ccc(N4CCN(C)CC4)cc3)nc2n1-c1cccc(C(C)(C)O)n1 [adavosertib]
CTG-3D luminescence at 96 h
Conditions	12.5 pM	0.00025 µM	0.005 µM	0.1 µM	1 µM	10 µM	100 µM	625 fM
HCI-001, days in culture: 240	1.67	0.913	1.22	0.745	0.618	0.244	0.152	1.51
HCI-001, days in culture: 260	1.62	1.31	2.32	1.44	1.04	0.27	0.15	1.14
HCI-001, days in culture: 269	1.43	1.7	1.59	1.8	0.496	0.254	0.087	1.65
HCI-001, days in culture: 327	1.54	1.49	1.68	1.68	1.18	0.193	0.182	1.68
HCI-001, days in culture: 346	1.44	1.34	1.22	1.52	1.48	0.163	0.121	1.33
HCI-001, days in culture: 364	1.41	1.15	1.37	1.17	0.983	0.13	0.0626	1.6
HCI-012, days in culture: 143	1.94	1.86	2.1	2.56	2.11	0.226	0.0167	2.06
HCI-012, days in culture: 162	2.21	2.27	2.02	3.54	2.56	0.304	0.0282	3.03
HCI-012, days in culture: 201	2.67	2.07	1.6	1.66	2.25	0.091	0.0326	1.71
HCI-017.E2, days in culture: 85	3.02	3.07	2.89	2.57	2.45	1.09	1.58	2.77
HCI-024, days in culture: 105	1.61	1.66	1.14	1.44	0.852	0.412	0.179	2.06
HCI-024, days in culture: 122	1.86	2.07	1.99	2.01	1.38	0.414	0.145	2.52
HCI-024, days in culture: 163	2.11	2.21	1.86	2.44	1.82	0.466	0.225	2.56

CTG-3D luminescence at 96 h
Conditions	12.5 pM	0.00025 µM	0.005 µM	0.1 µM	1 µM	10 µM	100 µM	625 fM
HCI-003.E2	2.18	2.35	2.25	2.28	1.54	0.668	0.388	2.01
HCI-005.E2	1.7	1.72	2.03	2.09	1.11	0.745	0.376	1.73
HCI-017.E2	1.84	2.24	2.2	2.13	1.78	1.28	1.51	2.15
